From USRE48097E1, “Cephem compounds, their production and use” (priority 2015, dated 2020)
Converted amounts (≈) assume the structure as drawn. Read-outs that look alike come from different tables or passages of the source.

Legend:
K. baumanii 2579 = experiment: MIC against K. baumanii 2579; format: cell-based; conditions: Table 2, K. baumanii 2579, OXA-25
Description: (§1) Without limitation, the present cephem compounds alone, or in combination with one or more β-lactamase inhibitors, may provide improved antibacterial efficacy, particularly in antibiotic-resistant bacterial strains. It is believed that the present compounds may be structurally different from known compounds and, as a result, may be more basic in nature. It is an advantage that the present compounds may extend the spectrum of effective bacterial compounds, particularly against previously-resistant bacteria (e.g. ESKAPE organisms), and/or gram negative bacteria, without significant side effects. In a preferred embodiment, the present cephem compound may comprise reference compound ceftazidime, which may be used alone, or in combination with one or more β-lactamase inhibitors, such as NXL-104. As shown, the foregoing composition was tested for minimum inhibitory concentration (MIC, μg/mL) against bacteria listed in Tables 2-3.

K. pneumoniae 4107 = experiment: MIC against K. pneumoniae 4107; format: cell-based; conditions: K. pneumoniae 4107, KPC-2, TEM-1, SHV-11
Description: (§2) As shown, the foregoing composition was tested for minimum inhibitory concentration (MIC, μg/mL) against bacteria listed in Tables 2-3.

K. pneumoniae 2690 = experiment: MIC against K. pneumoniae 2690; format: cell-based; conditions: Table 3, K. pneumoniae 2690, KPC-2
Description: as §2

E. cloacae 2044 = experiment: MIC against E. cloacae 2044; format: cell-based; conditions: Table 2, E. cloacae 2044, Caz S, IMP S
Description: as §1

M. morganii 2409 = experiment: MIC against M. morganii 2409; format: cell-based; conditions: Table 2, M. morganii 2409, High level cephase, β-Lactamase producing
Description: as §1

E. cloacae596 = experiment: MIC against E. cloacae596; format: cell-based, E. cloacae; conditions: Table 2, E. cloacae596, Caz R, IMP S
Description: as §1

E. coli 2668 = experiment: MIC against E. coli 2668; format: cell-based; conditions: Table 2, E. coli 2668, OXA-48
Description: as §1

S. aureus 3144 = experiment: MIC against S. aureus 3144; format: cell-based; conditions: Table 2, S. aureus 3144, MSSA
Description: as §1

K. baumanii 4095 = experiment: MIC against K. baumanii 4095; format: cell-based; conditions: Table 2, K. baumanii 4095, OXA-48
Description: as §1

[1] = test system: S. pneumoniae ATCC 700673; experiment: MIC against S. pneumoniae ATCC 700673; format: cell-based; conditions: Table 2, S. pneumoniae ATCC 700673, Pen R
Description: as §1

C. freundii 580 = experiment: MIC against C. freundii 580; format: cell-based; conditions: Table 2, C. freundii 580, Caz R, IMP S
Description: as §1

S. pneumoniae 2389 = experiment: MIC against S. pneumoniae 2389; format: cell-based; conditions: Table 2, S. pneumoniae 2389, Pen R
Description: as §1

E. cloacae 2704 = experiment: MIC against E. cloacae 2704; format: cell-based; conditions: Table 2, E. cloacae 2704, P99
Description: as §1

E. coli 4102 = experiment: MIC against E. coli 4102; format: cell-based; conditions: Table 2, E. coli 4102, CTX-M-14
Description: as §1

K. pneumoniae 4088 = experiment: MIC against K. pneumoniae 4088; format: cell-based; conditions: Table 3, K. pneumoniae 4088, KPC-3
Description: as §2

S. aureus 3132 = experiment: MIC against S. aureus 3132; format: cell-based; conditions: Table 2, S. aureus 3132, MSSA
Description: as §1

E. cloacae 2705 = experiment: MIC against E. cloacae 2705; format: cell-based; conditions: Table 3, E. cloacae 2705, VIM-1, KPC-3type
Description: as §2

S. pneumoniae 2407 = experiment: MIC against S. pneumoniae 2407; format: cell-based; conditions: Table 2, S. pneumoniae 2407, Pen S
Description: as §1

K. pneumoniae 2689 = experiment: MIC against K. pneumoniae 2689; format: cell-based; conditions: K. pneumoniae 2689, KPC-2
Description: as §2

S. pneumoniae 2493 = experiment: MIC against S. pneumoniae 2493; format: cell-based; conditions: Table 2, S. pneumoniae 2493, Pen R
Description: as §1

P. aeruginosa 2686 = experiment: MIC against P. aeruginosa 2686; format: cell-based; conditions: Table 3, P. aeruginosa 2686, KPC-2
Description: as §2

K. pneumoniae 2712 = experiment: MIC against K. pneumoniae 2712; format: cell-based; conditions: Table 3, K. pneumoniae 2712, KPC-3, VIM-1
Description: as §2

E. coli 4098 = experiment: MIC against E. coli 4098; format: cell-based; conditions: Table 2, E. coli 4098, CTX-M-15, TEM-1
Description: as §1

K. pneumoniae 4109 = experiment: MIC against K. pneumoniae 4109; format: cell-based; conditions: Table 2, K. pneumoniae 4109, SHV-1, SHV-12
Description: as §1

[2] = Table 2, in combination with NXL-104
[3] = Table 3, in combination with NXL-104
[4] = Klebsiella pneumoniae, alone, read-out: MIC
[5] = Enterobacter cloacae, alone, read-out: MIC
[6] = Escherichia coli, alone, read-out: MIC
[7] = Staphylococcus aureus, alone, read-out: MIC
[8] = Streptococcus pneumoniae, alone, read-out: MIC

SMILES: CC(C)(O/N=C(\C(=O)N[C@@H]1C(=O)N2C(C(=O)[O-])=C(C[n+]3ccc4n3CCN4Cc3ccc(C(=N)N)cc3)CS[C@H]12)c1csc(N)n1)C(=O)O [Example 2, (6R,7R)-7-{[(2Z)-2-(2-Amino-1,3-thiazol-4-yl)-2-{[(2-carboxypropan-2-yl)oxy]imino}acetyl]amino}-3-{[1-(4-carbamimidoylbenzyl)-2,3-dihydro-1H-imidazo[1,2-b]pyrazol-5-ium-5-yl]methyl}-8-oxo-5-thia-1-azabicyclo[4.2.0]oct-2-ene-2-carboxylate]
- MIC (K. baumanii 2579; alone, read-out: MIC): > 32 µg/mL
- MIC (K. baumanii 2579; in combination with NXL-104): 32.00 µg/mL
- MIC (K. pneumoniae 4107; Klebsiella pneumoniae, 4107, Table 2, alone, read-out: MIC): 16 µg/mL (≈ 22.6 µM)
- MIC (K. pneumoniae 4107; Klebsiella pneumoniae, 4107, Table 3, alone, read-out: MIC): > 32 µg/mL
- MIC (K. pneumoniae 4107; [2]): 4.00 µg/mL
- MIC (K. pneumoniae 4107; [3]): 2 µg/mL
- MIC (K. pneumoniae 2690; [4]): 32 µg/mL (≈ 45.1 µM)
- MIC (K. pneumoniae 2690; in combination with NXL-104): 2 µg/mL
- MIC (E. cloacae 2044; [5]): 0.25 µg/mL
- MIC (E. cloacae 2044; in combination with NXL-104): 0.12 µg/mL
- MIC (M. morganii 2409; Morganella morganii, alone, read-out: MIC): 8 µg/mL
- MIC (M. morganii 2409; in combination with NXL-104): 1.00 µg/mL
- MIC (E. cloacae596; [5]): 0.5 µg/mL
- MIC (E. cloacae596; in combination with NXL-104): 0.25 µg/mL
- MIC (E. coli 2668; [6]): 0.5 µg/mL
- MIC (E. coli 2668; in combination with NXL-104): 0.25 µg/mL
- MIC (S. aureus 3144; [7]): 4 µg/mL
- MIC (S. aureus 3144; in combination with NXL-104): 4.00 µg/mL
- MIC (K. baumanii 4095; alone, read-out: MIC): 0.25 µg/mL
- MIC (K. baumanii 4095; in combination with NXL-104): 0.25 µg/mL
- MIC ([1]; Streptococcus pneumoniae, ATCC700673, alone, read-out: MIC): 8 µg/mL
- MIC ([1]; in combination with NXL-104): 8.00 µg/mL
- MIC (C. freundii 580; Citrobacter freundii, alone, read-out: MIC): 4 µg/mL
- MIC (C. freundii 580; in combination with NXL-104): 0.50 µg/mL
- MIC (S. pneumoniae 2389; [8]): 8 µg/mL
- MIC (S. pneumoniae 2389; in combination with NXL-104): 8.00 µg/mL
- MIC (E. cloacae 2704; [5]): 4 µg/mL
- MIC (E. cloacae 2704; in combination with NXL-104): 1.00 µg/mL
- MIC (E. coli 4102; [6]): 1 µg/mL
- MIC (E. coli 4102; in combination with NXL-104): 0.12 µg/mL
- MIC (K. pneumoniae 4088; [4]): > 32 µg/mL
- MIC (K. pneumoniae 4088; in combination with NXL-104): 4 µg/mL
- MIC (S. aureus 3132; [7]): 2 µg/mL
- MIC (S. aureus 3132; in combination with NXL-104): 2.00 µg/mL
- MIC (E. cloacae 2705; [5]): > 32 µg/mL
- MIC (E. cloacae 2705; in combination with NXL-104): >32 µg/mL
- MIC (S. pneumoniae 2407; [8]): 0.12 µg/mL
- MIC (S. pneumoniae 2407; in combination with NXL-104): 0.12 µg/mL
- MIC (K. pneumoniae 2689; Klebsiella pneumoniae, 2689, Table 2, alone, read-out: MIC): 8 µg/mL (≈ 11.3 µM)
- MIC (K. pneumoniae 2689; Klebsiella pneumoniae, 2689, Table 3, alone, read-out: MIC): 32 µg/mL (≈ 45.1 µM)
- MIC (K. pneumoniae 2689; [2]): 2.00 µg/mL
- MIC (K. pneumoniae 2689; [3]): 2 µg/mL
- MIC (S. pneumoniae 2493; [8]): 8 µg/mL
- MIC (S. pneumoniae 2493; in combination with NXL-104): 8.00 µg/mL
- MIC (P. aeruginosa 2686; Pseudomonas aeruginosa, alone, read-out: MIC): > 32 µg/mL
- MIC (P. aeruginosa 2686; in combination with NXL-104): 16 µg/mL
- MIC (K. pneumoniae 2712; [4]): > 32 µg/mL
- MIC (K. pneumoniae 2712; in combination with NXL-104): 4 µg/mL
- MIC (E. coli 4098; [6]): 1 µg/mL
- MIC (E. coli 4098; in combination with NXL-104): 0.25 µg/mL
- MIC (K. pneumoniae 4109; [4]): 0.5 µg/mL
- MIC (K. pneumoniae 4109; in combination with NXL-104): 0.12 µg/mL
